According to patent US6706663B2, “Herbicidal 3-heterocyclic substituted benzisothiazole and benzisoxazole compounds” (Wyeth, priority 2000, dated 2004):

Tests used:
[1] = tested on: ABUTH (Abutilon theophrasti); test: Postemergence herbicidal evaluation; type: in vivo, Medic.; settings: postemergence
How it was run: (§1)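 Visual 0–9 injury scores versus control plants, covering stand, vigour, malformation, size, chlorosis and general appearance, taken four to five weeks post-spray and averaged over replicate tests. Plants were sprayed at roughly two weeks old and held on greenhouse benches.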

[2] = tested on: AMBEL (Ambrosia artemisifolia); test: Postemergence herbicidal evaluation; type: in vivo, L.; settings: postemergence
How it was run: as §1

[3] = tested on: CASOB (Cassia obtusifolia); test: Postemergence herbicidal evaluation; type: in vivo, L.; settings: postemergence
How it was run: as §1

[4] = tested on: CHEAL (Chenopodium album); test: Postemergence herbicidal evaluation; type: in vivo, L.; settings: postemergence
How it was run: as §1

GALAP (Galium aparine) = test: Postemergence herbicidal evaluation; type: in vivo; settings: postemergence
How it was run: as §1

[5] = tested on: IPOHE (Ipomoea hederacea); test: Postemergence herbicidal evaluation; type: in vivo, (L.) Jacq.; settings: postemergence
How it was run: as §1

[6] = tested on: ECHCG (Echinochloa crus-galli); test: Postemergence herbicidal evaluation; type: in vivo, (L.) Beau; settings: postemergence
How it was run: as §1

[7] = tested on: GLXMAW (Soybean, Williams); test: Postemergence herbicidal evaluation; type: in vivo, Glycine max, (L.) Merr. cv Williams; settings: postemergence
How it was run: as §1

ORYSAT (Rice, Tebonnet) [8] = test: Postemergence herbicidal evaluation; type: in vivo, Oryza sativa, (L.) Tebonnet; settings: postemergence
How it was run: as §1

[9] = tested on: TRZAWR (Wheat, Winter, cv Riband); test: Postemergence herbicidal evaluation; type: in vivo, Triticum aestivum; settings: postemergence
How it was run: as §1

ZEAMX (Corn, Field) [10] = test: Postemergence herbicidal evaluation; type: in vivo, Zea mays, L.; settings: postemergence
How it was run: as §1

[11] = tested on: ABUTH (Abutilon theophrasti); test: Preemergence herbicidal evaluation; type: in vivo, Medic.; settings: preemergence, rated 4-5 weeks after treatment
[12] = tested on: AMBEL (Ambrosia artemisifolia); test: Preemergence herbicidal evaluation; type: in vivo, L.; settings: preemergence, rated 4-5 weeks after treatment
How it was run: (§2)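 Visual 0-9 rating versus untreated control, taken four to five weeks post-treatment, scoring stand, vigor, malformation, size, chlorosis and overall appearance. Compound applied as aqueous acetone spray to freshly seeded soil cups, then kept under standard greenhouse care.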

[13] = tested on: IPOHE (Ipomoea hederacea); test: Preemergence herbicidal evaluation; type: in vivo, (L.) Jacq.; settings: preemergence, rated 4-5 weeks after treatment
[14] = tested on: ECHCG (Echinochloa crus-galli); test: Preemergence herbicidal evaluation; type: in vivo, (L.) Beau; settings: preemergence, rated 4-5 weeks after treatment
How it was run: as §2

GLXMA (Soybean) = test: Preemergence herbicidal evaluation; type: in vivo, Glycine max, (L.) Merr.; settings: preemergence, rated 4-5 weeks after treatment
ZEAMX (Corn, Field) [15] = test: Preemergence herbicidal evaluation; type: in vivo, Zea mays, L.; settings: preemergence, rated 4-5 weeks after treatment
[16] = tested on: ECHORC (Echinochloa oryzoides); test: Flooded paddy, preemergence weed control; type: in vivo, Echinochloa oryzoides (Ard.) Fritsch.; settings: rated 3-4 weeks after treatment, 0-9 rating scale
How it was run: (§3)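 In this preemergence paddy assay, weed seeds or organs are sown at up to 0.5 cm in silt loam and covered by 1.5–3 cm of water for the full test period. After treatment the pots are kept in a greenhouse, and herbicidal effect is rated 0-9 visually against a control.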

CYPIR (Cyperus iria) = test: Flooded paddy, preemergence weed control; type: in vivo; settings: rated 3-4 weeks after treatment, 0-9 rating scale
How it was run: as §3

[17] = tested on: MOOVA (Monochoria vaginalis); test: Flooded paddy, preemergence weed control; type: in vivo, Presl.; settings: rated 3-4 weeks after treatment, 0-9 rating scale
How it was run: as §3

[18] = tested on: SAGPY (Sagittaria pygmaea); test: Flooded paddy, preemergence weed control; type: in vivo, L.; settings: rated 3-4 weeks after treatment, 0-9 rating scale
How it was run: as §3

ORYSAT (Rice, Tebonnet) [19] = test: Flooded paddy, post-transplant rice tolerance; type: in vivo, Oryza sativa, (L.) Tebonnet; settings: flooded paddy, post-transplant rice; rate 0.1250 kg/ha; rated 3-4 weeks after treatment; 0-9 rating scale
How it was run: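 Visual 0–9 injury rating against a control, covering stand, vigor, malformation, size, chlorosis and overall appearance. Treatment was post-transplant onto flooded containers (water 1.5–3 cm deep, silt loam) holding two ten-day-old cv. Tebonnet seedlings, maintained on greenhouse benches.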

Q: Which ABUTH herbicidal rating ([1]; rate 0.0320 kg/ha) does the source give for `COC1(c2nsc3ccc(-n4c(=O)cc(C(F)(F)F)n(C)c4=O)cc23)N=C(N(C)C)NC1=O` (stereo not shown) [Compound 93, 3-[3-[2-(dimethylamino)-4-methoxy-5-oxo-2-imidazolin-4-yl]-1,2-benzisothiazol-5-yl]-1-methyl-6-(trifluoromethyl)uracil] here?
A: 9.0

Q: What about the ABUTH herbicidal rating ([1]; rate 0.0620 kg/ha) of the same molecule?
A: 9.0

Q: And the AMBEL herbicidal rating ([2]; rate 0.0320 kg/ha)?
A: 9.0

Q: What about the AMBEL herbicidal rating ([2]; rate 0.0620 kg/ha) of the same molecule?
A: 9.0

Q: And the CASOB herbicidal rating ([3]; rate 0.0320 kg/ha)?
A: 7.0

Q: And the CASOB herbicidal rating ([3]; rate 0.0620 kg/ha)?
A: 9.0

Q: What about the CHEAL herbicidal rating ([4]; rate 0.0320 kg/ha) of the same molecule?
A: 9.0

Q: And the CHEAL herbicidal rating ([4]; rate 0.0620 kg/ha)?
A: 9.0

Q: And the GALAP herbicidal rating (GALAP (Galium aparine); rate 0.0320 kg/ha)?
A: 9.0

Q: And the GALAP herbicidal rating (GALAP (Galium aparine); rate 0.0620 kg/ha)?
A: 9.0

Q: What about the IPOHE herbicidal rating ([5]; rate 0.0320 kg/ha) of the same molecule?
A: 9.0

Q: What about the IPOHE herbicidal rating ([5]; rate 0.0620 kg/ha) of the same molecule?
A: 9.0

Q: And the ECHCG herbicidal rating ([6]; rate 0.0320 kg/ha)?
A: 9.0

Q: And the ECHCG herbicidal rating ([6]; rate 0.0620 kg/ha)?
A: 9.0

Q: What about the GLXMAW herbicidal rating ([7]; rate 0.0320 kg/ha) of the same molecule?
A: 9.0

Q: And the GLXMAW herbicidal rating ([7]; rate 0.0620 kg/ha)?
A: 9.0

Q: What about the ORYSAT herbicidal rating (ORYSAT (Rice, Tebonnet) [8]; rate 0.0320 kg/ha) of the same molecule?
A: 4.0

Q: What about the ORYSAT herbicidal rating (ORYSAT (Rice, Tebonnet) [8]; rate 0.0620 kg/ha) of the same molecule?
A: 8.0

Q: What about the TRZAWR herbicidal rating ([9]; rate 0.0320 kg/ha) of the same molecule?
A: 5.5

Q: What about the TRZAWR herbicidal rating ([9]; rate 0.0620 kg/ha) of the same molecule?
A: 7.5

Q: What about the ZEAMX herbicidal rating (ZEAMX (Corn, Field) [10]; rate 0.0320 kg/ha) of the same molecule?
A: 5.5

Q: And the ZEAMX herbicidal rating (ZEAMX (Corn, Field) [10]; rate 0.0620 kg/ha)?
A: 5.5

Q: What about the “Preemergence herbicidal rating ABUTH” value ([11]; rate 0.0620 kg/ha) of the same molecule?
A: 9.0

Q: And the “Preemergence herbicidal rating ABUTH” value ([11]; rate 0.1250 kg/ha)?
A: 9.0

Q: And the “Preemergence herbicidal rating ABUTH” value ([11]; rate 0.2500 kg/ha)?
A: 9.0

Q: And the “Preemergence herbicidal rating AMBEL” value ([12]; rate 0.0620 kg/ha)?
A: 4.0

Q: And the “Preemergence herbicidal rating AMBEL” value ([12]; rate 0.1250 kg/ha)?
A: 7.0

Q: What about the “Preemergence herbicidal rating AMBEL” value ([12]; rate 0.2500 kg/ha) of the same molecule?
A: 9.0

Q: And the “Preemergence herbicidal rating IPOHE” value ([13]; rate 0.0620 kg/ha)?
A: 3.0

Q: What about the “Preemergence herbicidal rating IPOHE” value ([13]; rate 0.1250 kg/ha) of the same molecule?
A: 9.0

Q: What about the “Preemergence herbicidal rating IPOHE” value ([13]; rate 0.2500 kg/ha) of the same molecule?
A: 9.0

Q: What about the “Preemergence herbicidal rating ECHCG” value ([14]; rate 0.0620 kg/ha) of the same molecule?
A: 0.0

Q: What about the “Preemergence herbicidal rating ECHCG” value ([14]; rate 0.1250 kg/ha) of the same molecule?
A: 0.0

Q: And the “Preemergence herbicidal rating ECHCG” value ([14]; rate 0.2500 kg/ha)?
A: 4.0

Q: And the “Preemergence herbicidal rating GLXMA” value (GLXMA (Soybean); rate 0.0620 kg/ha)?
A: 4.0

Q: What about the “Preemergence herbicidal rating GLXMA” value (GLXMA (Soybean); rate 0.1250 kg/ha) of the same molecule?
A: 6.0

Q: And the “Preemergence herbicidal rating GLXMA” value (GLXMA (Soybean); rate 0.2500 kg/ha)?
A: 7.0

Q: What about the “Preemergence herbicidal rating ZEAMX” value (ZEAMX (Corn, Field) [15]; rate 0.0620 kg/ha) of the same molecule?
A: 0.0

Q: What about the “Preemergence herbicidal rating ZEAMX” value (ZEAMX (Corn, Field) [15]; rate 0.1250 kg/ha) of the same molecule?
A: 0.0

Q: And the “Preemergence herbicidal rating ZEAMX” value (ZEAMX (Corn, Field) [15]; rate 0.2500 kg/ha)?
A: 0.0

Q: What about the ECHORC herbicidal rating ([16]; rate 0.0320 kg/ha) of the same molecule?
A: 0.0

Q: What about the ECHORC herbicidal rating ([16]; rate 0.1250 kg/ha) of the same molecule?
A: 6.0

Q: And the CYPIR herbicidal rating (CYPIR (Cyperus iria); rate 0.0320 kg/ha)?
A: 0.0

Q: And the CYPIR herbicidal rating (CYPIR (Cyperus iria); rate 0.1250 kg/ha)?
A: 9.0

Q: And the MOOVA herbicidal rating ([17]; rate 0.0320 kg/ha)?
A: 0.0

Q: What about the MOOVA herbicidal rating ([17]; rate 0.1250 kg/ha) of the same molecule?
A: 9.0

Q: What about the SAGPY herbicidal rating ([18]; rate 0.0320 kg/ha) of the same molecule?
A: 0.0

Q: And the SAGPY herbicidal rating ([18]; rate 0.1250 kg/ha)?
A: 9.0

Q: What about the “ORYSAT herbicidal rating (transplanted rice tolerance)” value (ORYSAT (Rice, Tebonnet) [19]) of the same molecule?
A: 8.0
